{"source": "patent US20220273690A1", "about": "“Edible Formulations Based on Active Ingredients and Arginine” (GRAAL S.R.L., priority 2019, published 2022)", "key": {"[1]": {"test": "Neutralization of an aqueous solution of SAM-e tosylate with buffering agents to pH 7", "assay_type": "physicochemical", "settings": "for Final pH: SAMe tosylate 400 mg/100 mL after addition of the neutralizing agent; for Initial pH / Stabilization time: SAMe tosylate 400 mg/100 mL; for Initial pH: before addition of the neutralizing agent; for Neutralizing agents added amount: added to SAMe tosylate 400 mg/100 mL until neutralization", "method": "(§1) After measuring the pH, the solution was gradually added with buffering substance until neutralization and a pH 7 value were reached. As it can be seen from the table below (Table 9), the amount of Lysine and Potassium Citrate tribasic appear to be excessive to consider their use in commercial pharmaceutical forms. More precisely, from the table it can be noted that 15.4 g of Lysine fail to bring the SAMe solution to neutralization (the pH value remains 4).\nSAMe tosilate concentration: 400 mg/100 mL"}, "[2]": {"settings": "cited from earlier work"}, "[3]": {"settings": "cited from earlier work", "remark": "listed apart in the source"}, "[4]": {"test": "Neutralization of aqueous solutions of other acid active ingredients with L-Arginine", "assay_type": "physicochemical", "settings": "aqueous solution containing 1 g of the active ingredient", "text": "as §1\nBased on the excellent neutralization results obtained with L-Arginine, the same method was used to analyze the amount of L-Arginine necessary to neutralize a solution including other acid active ingredients (results below): • An aqueous solution containing 1 g of N-Acetyl-Cysteine is neutralized with 1.086 g of L-Arginine • An aqueous solution containing 1 g of L-Acetyl-Carnitine is neutralized with 0.736 g of L-Arginine"}}, "data": [{"molecule": "NCCCC[C@H](N)C(=O)O", "note": "[Lysine]", "values": [{"measurement": "Amount of neutralizing agent added", "setting": "[1]; SAMe solution, neutralization not reached", "value": 15.4, "unit": "g"}, {"measurement": "Final pH", "setting": "[1]", "value": 4}, {"measurement": "Initial pH", "setting": "[1]", "value": 2.08}, {"measurement": "Neutralizing agents added amount", "setting": "[1]", "value": 15402, "unit": "mg"}]}, {"molecule": "N=C(N)NCCC[C@H](N)C(=O)O", "note": "[Arginine]", "values": [{"measurement": "Final pH", "setting": "[1]", "value": 7.0}, {"measurement": "Initial pH", "setting": "[1]", "value": 2.08}, {"measurement": "Neutralizing agents added amount", "setting": "[1]", "value": 375, "unit": "mg"}]}, {"molecule": "O=C1O[C@H]([C@@H](O)CO)C(O)=C1O", "note": "[Ascorbic Acid]", "values": [{"measurement": "pKa", "setting": "[2]", "value": 4.36}]}, {"molecule": "N[C@@H](CC(=O)O)C(=O)O", "note": "[Aspartic Acid]", "values": [{"measurement": "pKa", "setting": "[2]", "value": 1.7}]}, {"molecule": "O=C([O-])CC(O)(CC(=O)[O-])C(=O)[O-].[K+].[K+].[K+]", "note": "[Potassium citrate tribasic]", "values": [{"measurement": "Stabilization time", "setting": "[1]", "value": "<3", "unit": "min"}, {"measurement": "Final pH", "setting": "[1]", "value": 7.0}, {"measurement": "Initial pH", "setting": "[1]", "value": 2.10}, {"measurement": "Neutralizing agents added amount", "setting": "[1]", "value": 14943, "unit": "mg"}]}, {"molecule": "O=C(O)CCCC[C@@H]1CCSS1", "note": "(racemic) [Lipoic acid]", "values": [{"measurement": "pKa", "setting": "[2]", "value": 4.52}]}, {"molecule": "CC(=O)SC[C@H](NC(=O)CC[C@H](N)C(=O)O)C(=O)NCC(=O)O", "note": "[S-acetyl-L-glutatione]", "values": [{"measurement": "pKa", "setting": "[2]", "value": 1.75}]}, {"molecule": "C[N+](C)(C)C[C@H](O)CC(=O)[O-]", "note": "[Levocarnitine]", "values": [{"measurement": "Solubility in water", "setting": "[3]", "value": 5330, "unit": "µg/mL"}, {"measurement": "pKa", "setting": "[2]", "value": 4.2}]}, {"molecule": "CC(=O)N[C@@H](CS)C(=O)O", "note": "[N-Acetyl Cysteine]", "values": [{"measurement": "Amount of L-Arginine needed to neutralize", "setting": "[4]", "value": 1.086, "unit": "g"}, {"measurement": "Solubility in water", "setting": "[3]", "value": 5090, "unit": "µg/mL"}]}, {"molecule": "C[S+](CC[C@H](N)C(=O)[O-])C[C@H]1O[C@@H](n2cnc3c(N)ncnc32)[C@H](O)[C@@H]1O", "note": "(stereo partly drawn) [SAMe, S-Adenosyl-l-methionine]", "values": [{"measurement": "Solubility in water", "setting": "[3]", "value": 1190, "unit": "µg/mL"}, {"measurement": "pKa", "setting": "[2]", "value": 1.7}]}, {"molecule": "CC(C)(O)CC(=O)O", "note": "[Hydroxy-methyl-butyrate, 3-hydroxy-3-methylbutyric acid]", "values": [{"measurement": "Solubility in water", "setting": "[3]", "value": 15000, "unit": "µg/mL"}, {"measurement": "pKa", "setting": "[2]", "value": 4.4}]}, {"molecule": "O=P([O-])([O-])[O-].[Na+].[Na+].[Na+]", "note": "[Sodium phosphate tribasic]", "values": [{"measurement": "Stabilization time", "setting": "[1]", "value": "<3", "unit": "min"}, {"measurement": "Final pH", "setting": "[1]", "value": 7.0}, {"measurement": "Initial pH", "setting": "[1]", "value": 2.09}, {"measurement": "Neutralizing agents added amount", "setting": "[1]", "value": 510, "unit": "mg"}]}, {"molecule": "CC(=O)Oc1ccccc1C(=O)O", "note": "[Acetylsalicylic acid]", "values": [{"measurement": "Solubility in water", "setting": "[3]", "value": 1460, "unit": "µg/mL"}]}, {"molecule": "O=C([O-])O.[Na+]", "note": "[Sodium bicarbonate]", "values": [{"measurement": "Stabilization time", "setting": "[1]", "value": "<3", "unit": "min"}, {"measurement": "Final pH", "setting": "[1]", "value": 7.0}, {"measurement": "Initial pH", "setting": "[1]", "value": 2.08}, {"measurement": "Neutralizing agents added amount", "setting": "[1]", "value": 690, "unit": "mg"}]}, {"molecule": "CC(=O)O[C@H](CC(=O)[O-])C[N+](C)(C)C", "note": "[L-Acetyl Carnitine]", "values": [{"measurement": "Amount of L-Arginine needed to neutralize", "setting": "[4]", "value": 0.736, "unit": "g"}, {"measurement": "Solubility in water", "setting": "[3]", "value": 142000, "unit": "µg/mL"}, {"measurement": "pKa", "setting": "[2]", "value": 4.09}]}, {"molecule": "N[C@@H](CCC(=O)O)C(=O)O", "note": "[Glutamic acid]", "values": [{"measurement": "pKa", "setting": "[2]", "value": 1.88}]}, {"molecule": "O=C([O-])[O-].[Na+].[Na+]", "note": "[Sodium carbonate]", "values": [{"measurement": "Stabilization time", "setting": "[1]", "value": "<3", "unit": "min"}, {"measurement": "Final pH", "setting": "[1]", "value": 7.0}, {"measurement": "Initial pH", "setting": "[1]", "value": 2.10}, {"measurement": "Neutralizing agents added amount", "setting": "[1]", "value": 200, "unit": "mg"}]}, {"molecule": "[O]=[Mg]", "note": "[Light magnesium oxide]", "values": [{"measurement": "Final pH", "setting": "[1]", "value": 7.1}, {"measurement": "Initial pH", "setting": "[1]", "value": 2.08}, {"measurement": "Neutralizing agents added amount", "setting": "[1]", "value": 44.91, "unit": "mg"}]}]}
